Results taken from patent US20250339569A1, “CARBONIC ANHYDRASE IX LIGANDS” (priority 2021, published 2025).
Like-named read-outs stand apart in the source and are kept apart here.

Assays:
[1] = Biodistribution study (SPECT/CT) in SK-RC-52 tumor-bearing mice with or without gelofusine; assay type: in vivo, NMRI nude mice; conditions: female, NMRI nude, mouse, in vivo, iv, total radioactivity
Protocol: (§1) The effect on tumor uptake of prior injection of gelofusine for kidney protection was investigated in mice bearing the SK-RC-52 tumor. Biodistribution was evaluated using in vivo SPECT/CT imaging. Prior to the in vivo study the compounds (ligands) were initially radiolabeled with In-111 and the stability of radiolabeled compounds was evaluated in buffer at three different timepoints.
(§2) The study was performed in female NMRI nude mice (approximately 6 weeks of age) from Janvier Labs, France, housed up to 5 mice per cage.
(§3) The column was washed with 2 mL water, and then the final product was eluted from the column in EtOH solution (50%) • The sample was formulated in PBS to the final concentration of 150 MBq/mL and 5 nmol/mL.
(§4) SK-RC-52 cells were cultured in RPMI 1640 with GlutaMax-I (Thermo Fisher Scientific #61870044) supplemented with 10% fetal bovine serum+1% penicillin/streptomycin, harvested, washed twice in RPMI 1640 and resuspended at 2×10^7 cells/mL in RPMI 1640. HT-29 cells were cultured in McCoy's 5a Medium Modified (Sigma #M9309). For inoculation of HT-29 cells, cells were harvested, washed twice in PBS and resuspended at 5×10^7 cells/mL in PBS. Cells were kept on ice until inoculation.
(§5) Animals were anaesthetized (isoflurane, 2-4% in ambient air supplemented with 100% 02) prior to tumor inoculation. The tumor cells (100 μL suspension of either SK-RC-52 cells (2×10^6 cells/animal) or HT-29 cells (5×10^6 cells/animal)) were subcutaneously inoculated in the right flank using a 1-mL syringe equipped with a 27 G needle. Tumor growth and animal weight were measured twice per week. Tumor size was measured by caliper and the volume was estimated using the following formula: 0.52×(length×width^2). When tumor sizes reached 150-250 mm^3, animals were randomized into groups (n=3) of similar average tumor volume and body weight.
(§6) Animals were injected intravenously with In-111-labeled compounds (single bolus, 22.3-31.2 MBq, ˜1 nmol ligand, injection volume: 100 μL) in the lateral tail vein using a 29 G syringe.
(§7) CT was performed with helical scan, 300 ms exposure, reconstruction resolution of 250 μm. SPECT was performed with multi-pinhole scan and a 30 s frame time. For the quantification of the radioactivity uptake, regions of interests (ROIs) were drawn over the tumor, kidney, liver, and heart (estimate of blood) identified on the images. Uptake was expressed as percent of injected dose per gram tissue (% ID/g).

SK-RC-52 tumor = test: as above; assay type: in vivo, NMRI nude mice; conditions: SK-RC-52, In-111-labeled; for % remaining tumor uptake at 24 h p.i.: Mean ± SEM
Protocol: as §1, §2, §3, §4, §5, §6, §7

[2] = Dose range finding study by intravenous route with toxicokinetics; assay type: in vivo, beagle dogs; conditions: for Dose-normalized AUClast: AUClast divided by dose in μg/kg; for clearance / half-life / Vd / AUC(0-t) / level at […]: male, beagle, iv, mean n = 2; for clearance / half-life / Vd: dog, plasma; for Vd: read-out: Vss; for AUC(0-t) / level at […]: dog plasma; for level at […]: read-out: C15 min
Protocol: The following parameters and endpoints were evaluated: mortality, clinical observations, body weights, food consumption, local reactions, clinical pathology parameters (hematology, coagulation, and clinical chemistry), organ weights, and macroscopic examinations. Both animals were sampled for toxicokinetics (TK) on each dosing occasion (i.e., on day 1, day 5, day 9 and day 13) at: pre-dose, 15 min, 30 min, 1 h, 6 h and 24 h. Blood samples were collected in K2EDTA tubes. Plasma was prepared by centrifugation (2500 g for 10 minutes, +4° C.) within 1 hour after collection, and then frozen within 1 hour after centrifugation and stored at −80° C. […] Chromatographic separation was achieved using a Waters Acquity UPLC system with a Waters Acquity HSS T3 C18 2.1×50 mm, 1.8 μm column. Chromatography was conducted at 50° C. at a flow rate of 0.7 mL/min using a mobile phase consisting of A: acetonitrile, and B: 1% formic acid in water, according to the following linear gradient: 0 to 0.1 min: 90% B; 0.1 to 4.1 min: from 90% B to 74% B; 4.1 to 4.2 min: from 74% B to 5% B; 4.2 to 4.6 min: 5% B; 4.6 to 4.7 min: from 5% B to 90% B; 4.7-5.1 min; 90% B. Detection was performed using a Sciex API6600 TOF mass spectrometer. Toxicokinetic parameters were estimated from concentration-time data using Phoenix pharmacokinetic software (version 6.4, Certara L. P.). A non-compartmental approach consistent with the bolus intravenous injection was used for parameter estimation.

Structure (SMILES): CC(C)C[C@@H]1NC(=O)[C@H](Cc2cccc(NC(=O)CCCS(N)(=O)=O)c2)NC(=O)[C@H](CC(=O)O)NC(=O)[C@H]2CCCN2C(=O)[C@H](CCC(=O)O)NC(=O)[C@@H](NC(=O)[C@H](CCC(N)=O)NC(=O)CN2CCN(C(=O)CN3CCN(CC(=O)O)CCN(CC(=O)O)CCN(CC(=O)O)CC3)CC2)CSCc2cccc(c2)CSC[C@@H](C(N)=O)NC(=O)[C@H](CO)NC(=O)[C@H](Cc2c[nH]c3ccccc23)NC(=O)[C@H]([C@@H](C)O)NC1=O [DPI-4452, DOTA-PPAc-Gln-[Cys(3MeBn)-Glu-pro-Asp-Af3(Cpsu)-Leu-Thr-Trp-Ser-Cys]-NH2]
- tissue uptake at 4 h ([1]; SK-RC-52, In-111-labeled, 4% gelofusine before, Mean ± SEM, read-out: Blood uptake at 4 h p.i.): 0.03 ± 0.01 %ID/g
- tissue uptake at 24 h ([1]; SK-RC-52, In-111-labeled, 4% gelofusine before, Mean ± SEM, read-out: Kidney uptake at 24 h p.i.): 0.73 ± 0.2 %ID/g
- tissue uptake at 4 h ([1]; SK-RC-52, In-111-labeled, 4% gelofusine before, Mean ± SEM, read-out: Liver uptake at 4 h p.i.): 0.12 ± 0.01 %ID/g
- tissue uptake ([1]; SK-RC-52, In-111-labeled, 4% gelofusine before, Mean ± SEM, read-out: Peak Kidney uptake): 1.84 ± 0.14 %ID/g
- tissue uptake at 4 h ([1]; SK-RC-52, In-111-labeled, no gelofusine, Mean ± SEM, read-out: Blood uptake at 4 h p.i.): 0.05 ± 0.01 %ID/g
- tissue uptake at 24 h ([1]; SK-RC-52, In-111-labeled, no gelofusine, Mean ± SEM, read-out: Kidney uptake at 24 h p.i.): 0.95 ± 0.05 %ID/g
- tissue uptake at 4 h ([1]; SK-RC-52, In-111-labeled, no gelofusine, Mean ± SEM, read-out: Liver uptake at 4 h p.i.): 0.18 ± 0.04 %ID/g
- tissue uptake ([1]; SK-RC-52 tumor mice, In-111-labeled, 4% gelofusine immediately before, Mean ± SEM, N=3, read-out: Peak Tumor Uptake): 13.4 ± 0.39 %ID/g
- Time to peak uptake in tumor (SK-RC-52 tumor; 4% gelofusine before): 4 h
- % remaining tumor uptake at 24 h p.i. (SK-RC-52 tumor; 4% gelofusine before): 69.6 ± 6.6%
- Time to peak uptake in tumor (SK-RC-52 tumor; no gelofusine): 1 h
- % remaining tumor uptake at 24 h p.i. (SK-RC-52 tumor; no gelofusine): 73.3 ± 0.8%
- Dose-normalized AUClast ([2]; Day 1, […] i.v.): 1.36
- Dose-normalized AUClast ([2]; Day 5, 0.08 mg/kg i.v.): 1.46
- Dose-normalized AUClast ([2]; Day 9, 0.4 mg/kg i.v.): 2.31
- Dose-normalized AUClast ([2]; Day 13, 0.8 mg/kg i.v.): 4.42
- dose proportionality of exposure ([2]; male beagle dogs, 25 to 800 μg/kg i.v.): exposure increased more than dose-proportionally
- tolerability ([2]; male beagle dogs, i.v. bolus, ascending 25, 80, 400, 800 μg/kg/day): well tolerated systemically and locally
- clearance ([2]; Day 1, 0.025 mg/kg i.v.): 11.7 mL/min/kg
- half-life ([2]; Day 1, 0.025 mg/kg i.v.): 15 min
- Vd ([2]; Day 1, 0.025 mg/kg i.v.): 0.22 L/kg
- clearance ([2]; Day 9, 0.4 mg/kg i.v.): 6.83 mL/min/kg
- half-life ([2]; Day 9, 0.4 mg/kg i.v.): 29.4 min
- Vd ([2]; Day 9, 0.4 mg/kg i.v.): 0.24 L/kg
- clearance ([2]; Day 13, 0.8 mg/kg i.v.): 3.52 mL/min/kg
- half-life ([2]; Day 13, 0.8 mg/kg i.v.): 52.8 min
- Vd ([2]; Day 13, 0.8 mg/kg i.v.): 0.32 L/kg
- AUC(0-t) ([2]; Day 1, 0.025 mg/kg i.v.): 34 ng·h/mL
- level at […] ([2]; Day 1, 0.025 mg/kg i.v.): 46.8 ng/mL
- AUC(0-t) ([2]; Day 5, 0.08 mg/kg i.v.): 117 ng·h/mL
- level at […] ([2]; Day 5, 0.08 mg/kg i.v.): 156 ng/mL
- AUC(0-t) ([2]; Day 9, 0.4 mg/kg i.v.): 926 ng·h/mL
- level at […] ([2]; Day 9, 0.4 mg/kg i.v.): 880 ng/mL
- AUC(0-t) ([2]; Day 13, 0.8 mg/kg i.v.): 3530 ng·h/mL
- level at […] ([2]; Day 13, 0.8 mg/kg i.v.): 2000 ng/mL

Structure (SMILES): CC(C)C[C@@H]1NC(=O)[C@H](Cc2cccc(NC(=O)CCCS(N)(=O)=O)c2)NC(=O)[C@H](CC(=O)O)NC(=O)[C@H]2CCCN2C(=O)[C@H](CCC(=O)O)NC(=O)[C@@H](NC(=O)[C@H](CCC(N)=O)NC(=O)CN2CCN(C(=O)CN3CCN(CC(=O)O)CCN(CC(=O)O)CCN(CC(=O)O)CC3)CC2)CSCc2cccc(c2)CSC[C@@H](C(N)=O)NC(=O)[C@H](CO)NC(=O)[C@H](Cc2c[nH]c3ccccc23)NC(=O)[C@H]([C@@H](C)O)NC1=O [[^111In]In-DPI-4452, metal not drawn]
- tissue uptake ([1]; SK-RC-52 model, with gelofusine, 1-2 hours post injection, read-out: peak kidney uptake): 1.84 ± 0.14 %ID/g
- tissue uptake at 24 h ([1]; SK-RC-52 model, with gelofusine, 24 hours post injection, read-out: kidney uptake): 0.73 ± 0.02 %ID/g
- tissue uptake at 24 h ([1]; SK-RC-52 model, without gelofusine, 24 hours post injection, read-out: kidney uptake): 0.95 ± 0.05 %ID/g
- tissue uptake ([1]; SK-RC-52 tumor, 4% gelofusine immediately before, peak at 4 hours (DPI-4452) or 1 hour (DPI-4501), mean±SEM, read-out: peak tumor uptake): 13.4 ± 0.39 %ID/g
- tissue uptake ([1]; summary over tumor models, read-out: peak tumor uptake, typical (conclusion)): 7 %ID/g
